Source: patent publication US7074801B1, “Nitrogen-containing condensed cyclic compound having a pyrazolyl group as a substituent group and pharmaceutical composition thereof” (Eisai Co., Ltd., priority 2001, dated 2006)
Where a name gives a salt, the structure may show the parent alone.

test system: STAT6; assay: Inhibitory test on STAT6 activation: IL-4-induced alkali phosphatase STAT6 reporter in 293 cells stably expressing the STAT6 gene and STAT6 reporter gene; type: cell-based; conditions: HEK293; Table 1; 1 ng/ml human recombinant IL-4, 16 hours, 293 cells with STAT6 reporter; read-out: Inhibitory activity IC50 (concentration at which the alkali phosphatase activity induced by IL-4 was inhibited by 50%)
Summary of the method: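 HEK293 clone stably carrying STAT6 and a STAT6-element-driven alkaline phosphatase reporter, 5000 cells/well. Compound (DMSO ≤0.1%) plus 1 ng/ml human IL-4 for 16 hours. Supernatant heat-treated 65° C. 10 minutes, then alkaline phosphatase measured fluorometrically in carbonate buffer.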

SMILES	IC50 [µM]
Cc1n[nH]cc1-c1ccc2ncc(-c3ccc(CN4CCC[C@H]4C(N)=O)s3)n2c1 [Example 120, (2S)-1-({5-[6-(3-Methyl-1H-4-pyrazolyl)imidazo[1,2-a]-pyridin-3-yl]-2-thienyl}methyl)tetrahydro-1H-2-pyrrole carboxyamide trihydrochloride]	< 0.01
Cc1n[nH]cc1-c1ccc2nccc(N3CCN(C(=O)N(C)CCN(C)C)CC3)c2c1 [Example 227, N-[2-(Dimethylamino)ethyl]-N-methyl-4-[6-(3-methyl-1H-4-pyrazolyl)-4-quinolyl]-1-piperazine carboxamide dihydrochloride]	0.01 to 0.1
FC(F)(F)c1cccc(N2CCN(c3ncnc4ccc(-c5cn[nH]c5)cc34)CC2)c1 [Example 265, 6-(1H-4-Pyrazolyl)-4-{4-[3-(trifluoromethyl)phenyl]-piperazin-1-yl}quinazoline trihydrochloride]	0.01 to 0.1
O=C1CCCN1Cc1nc(-c2cnc3ccc(-c4c[nH]nc4-c4ccccc4F)cn23)no1 [Example 596, 1-(3-{6-[3-(2-Fluorophenyl)-1H-4-pyrazolyl]-imidazo[1,2-a]-pyridin-3-yl}-[1,2,4]oxadiazol-5-ylmethyl)-pyrrolidin-2-one di-trifluoroacetate]	< 0.01
NC(=O)[C@@H]1CCCN1Cc1ccc(-c2cnc3ccc(-c4c[nH]nc4-c4ccc(F)cc4)cn23)s1 [Example 92, (2S)-1-[(5-{6-[3-(4-Fluorophenyl)-1H-4-pyrazolyl]-imidazo-[1,2-a]pyridin-3-yl}-2-thienyl)methyl]tetrahydro-1H-2-pyrrole carboxyamide trihydrochloride]	< 0.01
Cc1n[nH]cc1-c1ccc2nccc(N3CCC(Oc4ccc(S(C)(=O)=O)cc4)CC3)c2c1 [Example 239, 6-(3-Methyl-1H-4-pyrazolyl)-4-{4-[4-(methylsulfonyl)-phenoxy]piperidino}quinoline dihydrochloride]	< 0.01
CN1CCN(c2ccnc3ccc(-c4c[nH]nc4-c4ccc(F)cc4)cc23)CC1 [Example 203, 6-[3-(4-Fluorophenyl)-1H-4-pyrazolyl]-4-(4-methylpiperazin-1-yl)quinoline dihydrochloride]	0.01 to 0.1

The remaining lines, values ahead:

IC50 [µM]	SMILES
0.01 to 0.1	Cc1n[nH]cc1-c1ccc2ncc(-c3ccc(C(=O)NCCc4ccccn4)c(F)c3)n2c1 [Example 648, N1-[2-(2-Pyridyl)ethyl]-2-fluoro-4-[6-(3-methyl-1H-4-pyrazolyl)imidazo[1,2-a]pyridin-3-yl] benzamide]
< 0.01	Fc1cc(OC2CCCC2)ccc1-c1n[nH]cc1-c1ccc2ncc(-c3noc(C4CC4)n3)n2c1 [Example 584, 6-[3-(4-Cyclopentyloxy-2-fluorophenyl)-1H-4-pyrazolyl]-3-(5-cyclopropyl-[1,2,4]oxadiazol-3-yl)-imidazo[1,2-a]-pyridine trihydrochloride]
< 0.01	Fc1ccc(-c2n[nH]cc2-c2ccc3ncc(-c4noc(C5CC5)n4)n3c2)c(F)c1 [Example 576, 3-(5-Cyclopropyl-[1,2,4]oxadiazol-3-yl)-6-[3-(2,4-difluorophenyl)-1H-4-pyrazolyl]-imidazo[1,2-a]pyridine trihydrochloride]
< 0.01	C[C@H](NC(=O)c1ccc(-c2cnc3ccc(-c4cn[nH]c4)cn23)cc1F)C(=O)c1ccc(F)cc1 [Example 672, N1-[(1S)-2-(4-Fluorophenyl)-1-methyl-2-oxoethyl]-2-fluoro-4-[6-(1H-4-pyrazolyl)imidazo[1,2-a]pyridin-3-yl]benzamide hydrochloride]
0.01 to 0.1	CS(=O)(=O)c1ccc(-c2n[nH]cc2-c2ccc3ncc(-c4ccc(C#N)cc4)n3c2)cc1 [Example 102, 4–6-(3-[4-(Methylsulfonyl)phenyl]-1H-4-pyrazolyl}imidazo-[1,2-a]pyridin-3-yl)benzonitrile dihydrochloride]
< 0.01	Fc1cccc(F)c1-c1n[nH]cc1-c1ccc2ncc(-c3noc(CCC(F)(F)F)n3)n2c1 [Example 601, 3-[5-(3,3,3-Trifluoropropyl)-[1,2,4]oxadiazol-3-yl]-6-[3-(2,6-difluorophenyl)-1H-4-pyrazolyl]-imidazo[1,2-a]pyridine]
< 0.01	Cc1ccnc(NC(=O)c2ccc(-c3cnc4ccc(-c5cn[nH]c5)cn34)cc2F)c1 [Example 681, N1-(4-Methyl-2-pyridyl)-2-fluoro-4-[6-(1H-4-pyrazolyl)-imidazo[1,2-a]pyridin-3-yl]benzamide dihydrochloride]
0.01 to 0.1	Fc1cc(Cl)ccc1-c1nc(-c2ccc(-c3cnc4ccc(-c5cn[nH]c5)cn34)cc2)no1 [Example 697, 5-(4-Chloro-2-fluorophenyl)-3-{4-[6-(1H-4-pyrazolyl)-imidazo[1,2-a]pyridin-3-yl]-1,2,4-oxadiazole hydrochloride]
0.01 to 0.1	N#Cc1ccc(-c2cnc3ccc(-c4c[nH]nc4-c4ccc(F)cc4)cn23)s1 [Example 71, 5-{6-[3-(4-Fluorophenyl)-1H-4-pyrazolyl]imidazo[1,2-a]-pyridin-3-yl}-2-thiophene carboxynitrile dihydrochloride]
< 0.01	O=C(Nc1nc(C2CC2)cs1)c1ccc(-c2cnc3ccc(-c4cn[nH]c4)cn23)cc1F [Example 652, N1-(4-Cyclopropyl-1,3-thiazol-2-yl)-2-fluoro-4-[6-(1H-4-pyrazolyl)imidazo[1,2-a]pyridin-3-yl]benzamide dihydrochloride]
< 0.01	NC(=O)c1ccc(-c2cnc3ccc(-c4c[nH]nc4-c4ccc(F)cc4)cn23)cc1 [Example 78, 4-{6-[3-(4-Fluorophenyl)-1H-4-pyrazolyl]imidazo[1,2-a]-pyridin-3-yl}benzamide dihydrochloride]
< 0.01	Fc1ccccc1-c1n[nH]cc1-c1ccc2ncc(-c3noc(C4CC4)n3)n2c1 [Example 583, 3-(5-Cyclopropyl-[1,2,4]oxadiazol-3-yl)-6-[3-(2-fluorophenyl)-1H-4-pyrazolyl]-imidazo[1,2-a]pyridine trihydrochloride]
0.01 to 0.1	O=C(Nc1ccc(-c2cnc3ccc(-c4cn[nH]c4)cn23)cc1F)NC1CCCCC1 [Example 698, N-Cyclohexyl-N′-(2-fluoro-4-[6-(1H-4-pyrazolyl)imidazo[1,2-a]pyridin-3-yl]phenyl}urea hydrochloride]
< 0.01	CC(C)=Cc1nc(-c2cnc3ccc(-c4c[nH]nc4-c4ccccc4F)cn23)no1 [Example 592]
0.01 to 0.1	Cc1n[nH]cc1-c1ccc2ncc(-c3ccc(S(=O)(=O)N(C)c4ccc(Cl)cc4)cc3)n2c1 [Example 632, N1-(4-Chlorophenyl)-N1-methyl-4-[6-(3-methyl-1H-4-pyrazolyl)imidazo[1,2-a]pyridin-3-yl]-1-benzene sulfonamide]

same assay, conditions: HEK293; Table 2; 1 ng/ml human recombinant IL-4, 16 hours, 293 cells with STAT6 reporter; read-out: Inhibitory activity IC50 (concentration at which the alkali phosphatase activity induced by IL-4 was inhibited by 50%)

IC50 [µM]	SMILES
< 0.01	CS(=O)(=O)c1cccc(N2CCN(c3ncnc4ccc(-c5cn[nH]c5)cc34)CC2)c1 [Example 946, 4-[4-(3-Methylsulfonylphenyl)piperazin-1-yl]-6-(1H-pyrazol-4-yl)quinazoline tri-trifluoroacetate]
0.01 to 0.1	COc1nnc(-c2ncnc3ccc(-c4c[nH]nc4-c4c(F)cccc4F)cc23)o1 [Example 909, 6-[3-(2,6-Difluorophenyl)-1H-pyrazol-4-yl]-4-(5-methoxy|[1,3,4]oxadiazol-2-yl) quinazoline]
0.01 to 0.1	O=C(Nc1ccc(-c2cnc3ccc(-c4cn[nH]c4)cn23)cc1F)c1ccc(F)cc1 [Example 705, N1-{2-Fluoro-4-[6-(1H-4-pyrazolyl)imidazo[1,2-a]pyridin-3-yl]phenyl}-4-fluorobenzamide hydrochloride]
0.01 to 0.1	O=C(Nc1nccs1)c1ccc(-c2ncnc3ccc(-c4cn[nH]c4)cc23)cc1F [Example 872, 2-Fluoro-N-thiazol-2-yl-4-[6-(1H-pyrazol-4-yl)quinazolin-4-yl]benzamide trihydrochloride]
0.01 to 0.1	O=S(=O)(c1ccc(OC2CCN(c3ccnc4ccc(-c5c[nH]nc5C(F)(F)F)cc34)CC2)cc1)C(F)(F)F [Example 1034, 4-[4-(4-Trifluoromethylsulfonylphenoxy)piperidin-1-yl]-6-(3-trifluoromethyl-1H-pyrazol-4-yl)quinoline trihydrochloride]
0.1 to 1	O=S(=O)(c1ccc(-c2ncnc3ccc(-c4c[nH]nc4-c4ccc(F)cc4)cc23)s1)N1CCCC1 [Example 850, 6-[3-(4-Fluorophenyl)-1H-pyrazol-4-yl]-4-[5-(pyrrolidine-1-sulfonyl)thiophen-2-yl]quinazoline dihydrochloride]
< 0.01	CS(=O)(=O)c1cccc(N2CCN(c3ncnc4ccc(-c5c[nH]nc5-c5ccc(C#N)s5)cc34)CC2)c1 [Example 967, 5-(4-{4-[4-(3-Methylsulfonylphenyl)piperazin-1-yl]quinazolin-6-yl}-1H-pyrazol-3-yl)thiophen-2-carbonitrile tri-trifluoroacetate]
< 0.01	Fc1ccc(-c2n[nH]cc2-c2ccc3ncnc(-c4nnc(C5CC5)s4)c3c2)c(F)c1 [Example 908, 4-(5-Cyclopropyl[1,3,4]thiadiazol-2-yl)-6-[3-(2,4-difluorophenyl)-1H-pyrazol-4-yl] quinazoline]
< 0.01	COC1CCN(C(=O)c2ccc(-n3cnc4ccc(-c5c[nH]nc5-c5ccc(F)cc5)cc43)nc2)C1 (stereo not drawn) [Example 725, 6-{6-[3-(4-Fluorophenyl)-1H-4-pyrazolyl]-1H-benzo[d]imidazol-1-yl}-pyridin-3-yl)-(3-methoxypyrrolidin-1-yl)methanone dihydrochloride]
0.1 to 1	CS(=O)(=O)c1ccc(-c2ncnc3ccc(-c4c[nH]nc4COc4ccc(F)cc4F)cc23)s1 [Example 905, 6-[3-(2,4-Difluorophenoxymethyl)-1H-pyrazol-4-yl]-4-(5-methylsulfonylthiophen-2-yl) quinazoline]
< 0.01	O=S(=O)(c1ccc(-c2ncnc3ccc(-c4c[nH]nc4-c4ccc(F)cc4)cc23)s1)C1CC1 [Example 902, 4-(5-Cyclopropanesulfonylthiophen-2-yl)-6-[3-(4-fluorophenyl)-1H-pyrazol-4-yl] quinazoline]
